Test results as given in patent publication US5081253A, “Imidazo(4,5-C)pyridines as antiosteoporotic agents” (American Home Products Corporation, priority 1990, dated 1992).

Key:
[1] = tested on: osteopenia induced by denervation of the sciatic nerve in rats; experiment: Denervation Induced Osteopenia in Rats; assay type: in vivo, rat (female Sprague Dawley CD)
Source text: The purpose of this assay is to evaluate the effect, in rats, of agents on the reduction in bone mass (osteopenia) induced by immobilization resulting from surgical severance (denervation) of the sciatic nerve.
The animals are housed in plastic cages (4 or 5 rats/cage) with food (rat purina 500 chow) and water ad libitum; 14/10 day/night cycle.
After one week of in-house acclimatization, the animals are randomly divided into groups of 6 to 10 rats/group. Each rat is weighed, anesthetized with an intraperitoneal administration of 100 mg/kg ketamine (Bristol Laboratories, Syracuse, N.Y.) and 0.75 mg/kg Acepromazine (Aveco, Ft. Dodge, Iowa). The left hind limb is shaved and denervated by making a lateral incision parallel to the femur and by surgically removing half of a centimeter of the sciatic nerve adjacent to caudofemoralis and adductor brevis muscles. The incision is closed with wound clips. After surgery, the rats are housed in cages with absorbent bedding to minimize additional trauma to the immobilized limb. A 24 hour post-surgery recovery period is allowed before the initiation of the drug treatment.
The concentration of the drug stock is calculated to be delivered in a volume of 0.1 mL/100 gram body weight. The drug solution or a uniform suspension is prepared in 1% Tween 80 in normal saline. The drugs are administered via oral or parenteral routes daily (five times a week) for four weeks.
A sequential triple labeling of mineralized tissue is employed to determine the osseous changes (especially the bone formation) and the mineralization rates. Each animal is administered 90 mg/kg Xylenol orange (Fisher Scientific Company), S.C., 15 mg/kg Calcein (Sigma Chemical Company), S.C. and 15 mg/kg Demeclocycline (Sigma Chemical Company), i.p., approximately 21 days, 10 days and 2 days prior to the termination of the study, respectively.
At the end of the fourth week, each rat is weighed, anesthetized with an intraperitoneal administration of 100 mg/kg ketamine with 0.75 mg/kg Acepromazine and approximately 4 mL of blood collected via cardiac puncture. The anesthetized rats are euthanized by exposure to carbon dioxide. The femora and tibiae from both limbs are dissected free of soft tissue. (i) Femora are ashed at ~1100° C. for 16 hours using a muffle furnace. --(ii) Proximal tibia are fixed, dehydrated and embedded undecalcified in a methyl methacrylate-glycol methacrylate mixture. Longitudinal tissue sections (10 microns) are prepared on a Polycut S microtome (Reichert). Staining is performed on free-floating sections using a modified Goldner's stain, which are then mounted and coverslipped.
Cancellous bone content in the proximal tibia is quantified (as two dimensional bone mineral area [B.Ar]) with an image analysis processing device (software developed by Drexel University).
The areas of the tibia selected for cancellous bone content evaluation are the primary and secondary spongiosa. To select and standardize this area for evaluation, the epiphyseal growth plate-metaphyseal junction is oriented parallel to the abscissa of the digitizing screen. Bone elements 1.7 mm (secondary spongiosa) and 0.2 mm (primary spongiosa) from the growth plate and equidistant from the flanking cortical elements are then quantified as described above. The total area evaluated is 2.30 mm wide and 1.45 mm deep, constituting a 3.34 mm^2 area.
Body weight, femur mass (dried or ashed) and trabecular (cancellous) bone mineral area (B.Ar) are determined.
The difference (both absolute and percent change) in femur mass and bone mineral area between intact (control) and denervated limbs of a treatment group are compared with that for the vehicle group using a one-way analysis of variance with Dunnett's test, or other multiple comparison methods.
The results are reported in Table I and II under the heading In Vivo.

[2] = tested on: Rat Limb Bones (PTH induced bone resorption); experiment: Bone Resorption Assay: 45Ca Release from Rat Limb Bones (PTH Induced); assay type: cell-based, rat (Sprague-Dawley CD)
Procedure: The purpose of this assay is to identify compounds that inhibit basal or stimulated bone resorption in culture.
The ability of 2-substituted-imidazo[4,5-c]pyridines to modify the process of bone resorption was evaluated essentially as described by L.G. Raisz, Bone resorption in tissue culture. Factors influencing the response to parathyroid hormone.
Timed pregnant Sprague-Dawley CD® rats (Charles River) are administered 100 μCi ^45 CaCl2 (NEN calcium -45 NEZ-013) in 100 μL of 0.9% saline, subcutaneously, on day 18 of gestation. The rats are sacrificed the following day by CO2 asphyxiation. The fetuses are removed and the right forelimbs excised and placed in a Petri dish containing ice cold explant medium consisting of modified BGJb -Fitton Jackson media (custom formulation, Gibco No. 78-0088) adjusted to pH 7.3 to which 10 mM TES is added. […] Under a dissecting microscope, the bones are gently cleaned of adherent tissue and the cartilaginous ends removed. Incubation and drug treatment. […] The preincubation medium is brought to 37° C. prior to transfer of bones. The preincubation medium consists of the modified BGJb medium (with salts and glucose as above), pH 7.3, containing 29 mM NaHCO3. […] For compounds that require nonaqueous solvents, dilutions are made from the appropriate stock solution with medium. In these instances, basal and bone resorption stimulated controls exposed to an equivalent concentration of the vehicle are included. […] The right ulna and radius from each fetus are used. Both bones are subjected to the same treatment and each treatment group consists of bones from 4 or more fetuses. Treatments are randomly assigned using a preclinical statistics program (PS-ALLOC). After a 48 hour incubation at 37° C. in 5% CO2, the bones are removed from the medium and extracted in 0.5 mL of 0.1N HCl for 1 or more days. Duplicate 150 μL aliquots of the incubation medium and the bone extract are analyzed for ^45 Ca radioactivity in 5 mL of liquid scintillation cocktail.
The percentage of bone ^45 Ca released into the medium is determined as follows: [formula] […]

[3] = Table II, 25 mg/kg, route not given
[4] = Table I, concentration not given

Compound | Inhibition of Bone Resorption, In Vivo [1, 3] | Inhibition of Bone Resorption, PTH Induced ([2]; Table II, 10 μg/mL) | Inhibition of Bone Resorption, In Vivo ([1]; po, 672 h) | Inhibition of Bone Resorption, PTH Induced ([2]; Table I, 10 μg/mL) | other results
2-[[(3,5-Dimethoxyphenyl)methyl]thio]-1H-imidazo[4,5-c]pyridine [Example 44] | Inactive | Active |  |  | 
COc1cccc(C[S+]([O-])c2nc3cnccc3[nH]2)c1 (single isomer, unassigned) [Example 57] |  |  |  |  | Inhibition of Bone Resorption, PTH Induced [2, 4]: Active
COc1cccc(C[S+]([O-])c2nc3cnccc3[nH]2)c1 (single isomer, unassigned) [Example 58, [R-(-)]-2-[[(3-Methoxyphenyl)methyl]sulfinyl]-1H-imidazo[4,5-c]pyridine One Quarter Hydrate] |  |  |  |  | Inhibition of Bone Resorption, PTH Induced [2, 4]: Active
COc1cccc(CCSc2nc3cnccc3[nH]2)c1 [Example 16, 2-[[(3-Methoxyphenyl)ethyl]thio]-1H-imidazo[4,5-c]pyridine] |  | Inactive |  |  | Inhibition of Bone Resorption, In Vivo ([1]; Table II, 25 mg/kg, p.o.): Inactive
Clc1cc2c(cc1CSc1nc3cnccc3[nH]1)OCO2 [Example 24, 2-[[(6-Chloro-1,3-benzodioxol-5-yl)methyl]thio]-1H-imidazo[4,5-c]pyridine] |  | Active |  |  | 
COc1ccc(C[S+]([O-])c2nc3cnccc3[nH]2)cc1 (stereo not drawn) [Example 27, 2-[[(4-Methoxyphenyl)methyl]sulfinyl]-1H-imidazo[4,5-c]-pyridine-One Third Hydrate] |  |  | Inactive | Active | 
COc1cc(C[S+]([O-])c2nc3cnccc3[nH]2)cc(OC)c1OC (stereo not drawn) [Example 29, 2-[[(3,4,5-Trimethoxyphenyl)methyl]sulfinyl]-1H-imidazo[4,5-c]pyridine-One Third Hydrate] |  |  | Inactive |  | Inhibition of Bone Resorption, PTH Induced [2, 4]: Inactive
N#Cc1ccccc1CSc1nc2cnccc2[nH]1 [Example 38, 2-[(1H-Imidazo[4,5-c]pyridin-2-ylthio)methyl]benzonitrile] | Inactive | Inactive |  |  | 
N#Cc1ccccc1C[S+]([O-])c1nc2cnccc2[nH]1 (stereo not drawn) [Example 39, 2-[[(1H-Imidazo[4,5-c]pyridin-2-yl)sulfinyl]methyl]benzonitrile] |  |  | Inactive | Active | 
Fc1ccccc1CSc1nc2cnccc2[nH]1 [Example 40, 2-[[(2-Fluorophenyl)methyl]thio]-1H-imidazo[4,5-c]pyridine] | Inactive | Active |  |  | 
[O-][S+](Cc1ccccc1F)c1nc2cnccc2[nH]1 (stereo not drawn) [Example 41, 2-[[(2-Fluorophenyl)methyl]sulfinyl]-1H-imidazo[4,5-c]pyridine Quarter Hydrate] |  |  | Inactive | Active | 
COc1ccccc1CSc1nc2cnccc2[nH]1 [Example 42, 2-[[(2-Methoxyphenyl)methyl]thio]-1H-imidazo[4,5-c]pyridine] |  | Active |  |  | 
COc1ccccc1C[S+]([O-])c1nc2cnccc2[nH]1 (stereo not drawn) [Example 43, 2-[[(2-Methoxyphenyl)methyl]sulfinyl]-1H-imidazo[4,5-c]pyridine] |  |  |  | Active | 
COc1cc(C[S+]([O-])c2nc3cnccc3[nH]2)cc(OC)c1 (stereo not drawn) [Example 45, 2-[[(3,5-Dimethoxyphenyl)methyl]sulfinyl]-1H-imidazo[4,5-c]pyridine] |  |  | Inactive | Active | 
c1ccc(Oc2cccc(CSc3nc4cnccc4[nH]3)c2)cc1 [Example 46, 2-[[(3-Phenoxyphenyl)methyl]thio]-1H-imidazo[4,5-c]pyridine] | Inactive | Inactive |  |  | 
[O-][S+](Cc1cccc(Oc2ccccc2)c1)c1nc2cnccc2[nH]1 (stereo not drawn) [Example 47, 2-[[(3-Phenoxyphenyl)methyl]sulfinyl]-1H-imidazo[4,5-c]pyridine] |  |  | Inactive | Active | 
O=[N+]([O-])c1cccc(CSc2nc3cnccc3[nH]2)c1 [Example 48, 2-[[(3-Nitrophenyl)methyl]thio]-1H-imidazo[4,5-c]pyridine] | Inactive |  |  |  | 
O=[N+]([O-])c1cccc(C[S+]([O-])c2nc3cnccc3[nH]2)c1 (stereo not drawn) [Example 49, 2-[[(3-Nitrophenyl)methyl]sulfinyl]-1H-imidazo[4,5-c]pyridine 0.15 Dimethylformamide] |  |  | Inactive |  | 
COc1ccc(CSc2nc3cnccc3[nH]2)cc1C [Example 50, 2-[[(4-Methoxy-3-methylphenyl)methyl]thio]-1H-imidazo[4,5-c]pyridine] | Inactive |  |  |  | 
COc1ccc(C[S+]([O-])c2nc3cnccc3[nH]2)cc1C (stereo not drawn) [Example 51, 2-[[(4-Methoxy-3-methylphenyl)methyl]sulfinyl]-1H-imidazo[4,5-c]pyridine] |  |  | Inactive |  | 
CCOc1cccc(CSc2nc3cnccc3[nH]2)c1 [Example 52, 2-[[(3-Ethoxyphenyl)methyl]thio]-1H-imidazo[4,5-c]pyridine] | Inactive | Inactive |  |  | 
CCOc1cccc(C[S+]([O-])c2nc3cnccc3[nH]2)c1 (stereo not drawn) [Example 53, 2-[[(3-Ethoxyphenyl)methyl]sulfinyl]-1H-imidazo[4,5-c]pyridine One Third Hydrate] |  |  |  | Active | 
Br.Br.Oc1cccc(CSc2nc3cnccc3[nH]2)c1 [Example 54, 3-[[(1H-Imidazo[4,5-c]pyridin-2-yl)thio]methyl]phenol Dihydrobromide] | Inactive | Inactive |  |  | 
